Source: ChEMBL document CHEMBL5252554, “Stereodivergent Hydroxylation of Berkeleylactones by Penicillium turbatum” (J Nat Prod, 2023)
Converted amounts (≈) assume the structure as drawn.

How the values were obtained:
Saccharomyces cerevisiae = assay: Antifungal activity against Saccharomyces cerevisiae ATCC 9763 assessed as fungal growth inhibition measured after 48 hrs by bromocresol green staining based method; format: functional
[1] = Antiproliferative activity against mouse NS-1 cells assessed as cell growth inhibition measured after 72 hrs by resazurin dye based assay; format: functional; conditions: for IC50: NS1, 72 h
Bacillus subtilis = assay: Antibacterial activity against Bacillus subtilis ATCC 6633 assessed as bacterial growth inhibition measured after 48 hrs by resazurin dye based assay; format: functional
Staphylococcus aureus = assay: Antibacterial activity against Staphylococcus aureus ATCC 25923 assessed as bacterial growth inhibition measured after 48 hrs by resazurin dye based assay; format: functional
Giardia intestinalis = assay: Antiprotozoal activity against Giardia duodenalis 713 assessed as protozoal growth inhibition measured after 96 hrs under anaerobic conditions; format: functional
Escherichia coli = assay: Antibacterial activity against Escherichia coli ATCC 25922 assessed as bacterial growth inhibition measured after 48 hrs by resazurin dye based assay; format: functional, organism-based

| Compound | MIC (Bacillus subtilis) | IC50 [1] | MIC (Staphylococcus aureus) | other results |
| --- | --- | --- | --- | --- |
| C[C@@H]1[C@H](O)[C@@H](C)/C=C/C=C/C=C/C=C/C=C/C=C/C=C/[C@H](O[C@@H]2O[C@H](C)[C@@H](O)[C@H](N)[C@@H]2O)C[C@@H]2O[C@](O)(C[C@@H](O)C[C@@H](O)[C@H](O)CC[C@@H](O)C[C@@H](O)CC(=O)O[C@H]1C)C[C@H](O)[C@H]2C(=O)O [AMPHOTERICIN B] |  |  |  | MIC (Saccharomyces cerevisiae): 0.3 µM (≈ 0.277 µg/mL) |
| CO[C@@]12[C@H](COC(N)=O)C3=C(C(=O)C(C)=C(N)C3=O)N1C[C@@H]1N[C@@H]12 [MITOMYCIN] |  |  |  | MIC ([1]; time 72 hrs): 0.93 µM (≈ 0.311 µg/mL) |
| COC(=O)CCC(=O)O[C@H]1CCCCCCCCC[C@@H](C)OC(=O)/C=C/[C@H]1O | 12.5 µg/mL | 5.9 µM | 25 µg/mL |  |
| C[C@@H]1C[C@@H](O)CCCCCCC[C@H](O)[C@H](O)/C=C/C(=O)O1 |  | 32 µM | 50 µg/mL | LD99 (Giardia intestinalis): 50 µg/mL |
| C[C@@H]1CCCCCCCCC[C@H](OC(=O)CCC(=O)O)C(=O)/C=C/C(=O)O1 |  | 3.1 µM | 0.4 µg/mL |  |
| GENTAMICIN | 0.8 µM |  | 0.8 µM | MIC (Escherichia coli): 1.7 µM |
